Laboratory results from US20030104079A1, “Skin tissue regeneration promoters comprising ginsenoside Rb1” (Japan Science and Technology Corporation, Japan, priority 2000, published 2003).

How the values were obtained:
[1] = test system: morsus of human oral mucosa; experiment: Therapy of morsus of human oral mucosa by external application; type: in vivo; conditions: propet containing 0.00001% by weight
Text: Next, one of the present inventors had confirmed by themself whether or not propet containing low concentration of ginsenoside Rb1 was effective to morsus of mouth or oral mucosa. On May 2nd, 2000, at about 2:00 p.m. after dental treatment, […] had started to have late lunch before waking up from infiltration anesthesia of the left third branch of the trigeminal nerve and periodontal anesthesia due to heavy hunger. They had bitten themself three times their own left lip mucosa and since they felt iron taste (blood) in their oral cavity, as a result of confirmation of their morsus by a mirror, they found at least five regions of erosion or defect of mouth or oral mucosa, further hematocele or hematoma was found at one spot. Since they concluded that if it (i.e. morsus of oral mucosa) was allowed to leave as it is, aphthous stomatitis would be complicated within several days to require a week to ten days for complete cure, propet containing a low concentration (0.00001% by weight) of ginsenoside Rb1, which had been confirmed to show effectiveness and efficacy by animal experiments of the present inventors, was applied with small amount to the five regions with erosion or defect of oral mucosa and one hematocele or hematoma region. External or topical application was performed before and after meal and before and after eating between meals. The external or topical application was performed after tooth brushing was performed as much as possible after the meal. Namely, propet containing 0.00001% by weight of ginsenoside Rb1 was applied externally or topically onto morsus regions of the labial mucosa separately 6-10 times a day. FIG. 7 is a photograph in place of drawing.
Next, one of inventors of the present invention (Sakanaka) had bitten again left lower labial mucosa on May 26, 2000 during lunch, and propet containing 0.00001% by weight of ginsenoside Rb1 was applied topically or externally onto the morsus region. A photograph just after morsus is shown in left of FIG. 8, and a photograph at 72 hours after morsus is shown in right of FIG. 8.
Next, one of the present inventors had confirmed by themself whether propet containing low concentrations of ginsenoside Rb1 was effective for morsus of mouth mucosa or not. On May 2nd, 2000, at about 2:00 p.m. after dental treatment, […] had started to have late lunch before awakening from infiltration anesthesia of the left third division of the trigeminal nerve and periodontal anesthesia due to heavy hunger. They had bitten themself three times their own left lip mucosa and they felt iron taste (blood) in their oral cavity. As a result of confirmation of their morsus by a mirror, they found at least five regions of erosion or defect of mouth mucosa, further hematoma was found at one spot. Since they concluded that if the morsus was allowed to leave as it was, aphthous stomatitis would be developed as a complication to require a week to ten days for complete cure, a small amount of propet containing a low concentration (0.00001% by weight) of ginsenoside Rb1, which had been confirmed to show effectiveness and efficacy by animal experiments of the present inventors, was topically or externally applied to the five regions with erosion or defect of oral mucosa and to one hematoma region. External or topical application was performed before and after meal and before and after eating between meals. […]

cuttings of pothos = experiment: Hydroponic culture of cuttings of pothos (rooting); design: species or system pothos (Epipremunum aureum, golden pothos); conditions: 100 fg/ml in water
Procedure: Next, we have examined whether ginsenosides, especially ginsenoside Rb1, can promote generation, regeneration or reconstruction of not only skin tissue or mouth mucosal tissue but also plant tissues. For that purpose, one of foliage plants, pothos is selected. Six cuttings resembled with each other from the parent plant of pothos in the room of one of the inventors (Tanaka) were collected. Among them, 3 cuttings were cultured by hydroponics with the use of only water and the remaining three were cultured in water containing ginsenoside Rb1 at a concentration of 100 fg/ml. FIG. 9 is a photograph in place of drawing.
Then, we have further continued cultivation of the above cuttings with hydroponics and on day 22, again photographs were taken. FIG. 10 is a photograph in place of drawing. Left photograph in FIG. 10 is the cuttings of pothos cultured with only water for 22 days and right photograph in FIG. 10 is the cuttings cultured with water containing the low concentration of ginsenoside Rb1 (100 fg/ml). Waters with or without containing ginsenoside Rb1 for hydroponics were exchanged once in a week. We have further made observation of rooting region on day 27.
Next, we have examined whether a crude saponin fraction of ginseng, like ginsenoside Rb1 at low concentrations, can promote, generation, regeneration or reconstruction of the cutting of pothos. For that purpose, two cuttings resembled with each other from the parent plant of pothos were collected. Among them, the one cutting was cultured with only water and the remaining one was cultured in water containing the crude saponin fraction of ginseng at a concentration of 1450 fg/ml. FIG. 11 is a photograph in place of drawing. Left photograph in FIG. 11 is the cutting cultured with only water and right photograph in FIG. 11 is the cutting cultured with water containing the crude saponin fraction of ginseng (1450 fg/ml). […]

CC(C)=CCC[C@](C)(O[C@@H]1O[C@H](CO[C@@H]2O[C@H](CO)[C@@H](O)[C@H](O)[C@H]2O)[C@@H](O)[C@H](O)[C@H]1O)[C@H]1CC[C@]2(C)[C@@H]1[C@H](O)C[C@@H]1[C@@]3(C)CC[C@H](O[C@@H]4O[C@H](CO)[C@@H](O)[C@H](O)[C@H]4O[C@@H]4O[C@H](CO)[C@@H](O)[C@H](O)[C@H]4O)C(C)(C)[C@@H]3CC[C@]12C [ginsenoside Rb1]
pain in the wounded regions [1]: markedly reduced | epithelization of morsus regions of labial mucosa (FIG. 7) ([1]; 6-10 times a day, 96 hours after morsus, one person): almost complete epithelization | complication of aphthous stomatitis after morsus ([1]; first case): no complication of aphthous stomatitis was observed | cure of morsus (FIG. 8) ([1]; second case, 72 hours after morsus): rapidly cured without developing aphthous stomatitis as a complication | time in which morsus (wound) healing is markedly promoted ([1]; such morsus usually requires at least 7 to 10 days): ≤ 96 h | generation or regeneration of roots (FIG. 10) (cuttings of pothos; 22 days): many roots were generated or regenerated | growth of root (FIG. 9) (cuttings of pothos; day 13, vs water alone): growth of root is promoted | secondary rooting arising from the primary rooting regions (cuttings of pothos; day 27, none on cuttings in water only): clearly observed on all three cuttings
